Measurements: patent US7399583B2, “Method for the identification of inhibitors of the binding of ARE-containing mRNA and a HuR protein” (Novartis AG, priority 2002, dated 2008)

Columns and labels:
full length HuR = target: T1, full length HuR (Homo sapiens, UniProt Q15717); assay: Deduction of the HuR binding site: affinities of RNA fragments to full length HuR
T1 construct: made in house; host or cells: E. coli ER2566
Experimental: Individual RNA fragments are synthesized and the affinities (given as Kd values) to full length HuR are determined (see TABLE 2). […] An influence of the fluorescent dye is excluded by competition experiments with unlabeled RNA fragments. […] Fragments 5, 6, 7a-7d and 8a-8c serve to tests tolerance for non-Uracil (exemplified by A=adenine) and C, respectively, at the depicted (bold and underlined) positions. […] This interaction appears to follow an all-or-nothing mechanism: While sequences with single mismatches are not recognized, sequences fulfilling this motif are bound with high affinity and an invariable Kd, Kdfund, of 0.99 nM.

[1] = target: T2, sfl-HuR (soluble form of full length HuR) (Homo sapiens, UniProt Q15717); assay: 2D-FIDA-r anisotropy assay: titration of fluorescently labeled ARE RNA fragments against sfl-HuR; type: binding; conditions: 2D-FIDA-r assay, RNA fragment 5'-terminally labeled with 5'-carboxy-TMR; for Kd: read-out: Kd sfl-HuR in nM +/- St. dev.
T2 construct: made in house; host or cells: E. coli ER2566
Experimental: (§1) In a preferred embodiment an assay of the present invention is performed by use of 2 dimensional-FIDA anisotropy analysis, wherein the fluorescence anisotropy of the complex between mRNA and HuR is determined at single molecule sensitivity by extension of the microscopic confocal detection setup to two polarisation channels.
(§2) Titration of fluorescently labeled RNA fragments corresponding to the AREs of, for example, IL-2, IL-4, IL-8, Cox-2, IL-1β or TNF-α (5′-terminally labeled with 5′-carboxy-TMR and 33, 58, 26, 35, 33 and 34 nts in length, respectively), against increasing concentrations of a soluble form of recombinant full-length HuR or HuR12 is performed.
(§3) In vitro, individual AU rich elements are bound to HuR with different affinity, although they are derived from mRNA targets which are known to be associated with HuR-mediated regulation. This fragment selectivity is retained when the third RRM as well as the hinge region are missing as is the case for HuR12. […] However, the full length protein binds to all fragments with a higher affinity. The Kd is lower by an almost constant factor of 50. In contrast, the low affinity fragments (Kd for HuR12>1 μM) are no longer recognized by the full length protein at all (see TABLE 1).

HuR12 = target: T3, HuR12 (Homo sapiens, UniProt Q15717); assay: 2D-FIDA-r anisotropy assay: titration of fluorescently labeled ARE RNA fragments against HuR12; type: binding; conditions: 2D-FIDA-r assay, RNA fragment 5'-terminally labeled with 5'-carboxy-TMR; for Kd: read-out: Kd HuR12 in nM +/- St. dev.
T3 construct: Mxe-intein-CBD tag (IMPACT-TWIN, pTWIN1) (C, cleaved yes); 2-MESNA thioester on the C-terminal carboxyl group (>95% of the material); made in house; host or cells: E. coli ER2566 (pTWIN1/HuR12)
Experimental: as §1, §2, §3

[2] = Solubility: no aggregation and precipitation in aqueous buffer (size exclusion chromatography and/or UV-spectroscopy); type: physicochemical; conditions: aqueous buffer of physiological pH; for concentration at which no aggregation and precipitation is seen: spectroscopy-compatible conditions
Experimental: The concentration of protein used in an assay of the present invention depends on the binding affinity between a specific mRNA (fragment) and HuR, e.g. the protein concentration used in an assay of the present invention may be lower in case there is a high binding affinity between the two species or vice versa. Solvent include aqueous solvent, e.g. buffer solution, e.g. aqueous physiological buffer solution.
Expression of the cloned HuR-Intein-CBD fusion protein is induced by addition of 1 mM IPTG to a bacterial culture grown to late-logarithmic phase in LB broth medium and allowed to proceed for 6 hours at 28°. The bacterial cells are lysed by successive freezing/thawing cycles in a buffer of 20 mM Tris/Cl pH 8.0, 800 mM NaCl, 1 mM EDTA and 0.2% Pluronic F-127 (Molecular Probes). After DNA digestion, the bacterial lysates are cleared by ultracentrifugation and the fusion protein is captured onto chitin agarose beads (New England Biolabs) via the CBD. After extensive washing of the beads with lysis buffer, the recombinant protein is recovered by thiol-induced on-column self-splicing of the intein tag by addition of Na-2-MESNA to a final concentration of 50 mM and incubation for 12 hours at 4°. Any co-eluted intein tag and un-cleaved fusion protein are removed from the eluate in a second, subtractive affinity step. […]
The quality of the purified protein is controlled by denaturing SDS-PAGE, UV-spectroscopy, analytical Size Exclusion Chromatography, RP-HPLC analysis, LC/ESI-MS analysis and CD-spectroscopy, following standard protocols as described in example 2. […] Results from UV-spectroscopy, showing no absorbance at >330 nm, and analytical size exclusion chromatography, where HuR elutes as a single peak with a maximum at 24.2 kD, provide evidence that no higher aggregation states of the protein are present at the given buffer concentrations.
The folding of the protein after the purification procedure as well as following fluorescent labeling is monitored by CD-Spectroscopy.

T3 sequence (Q15717 2-189): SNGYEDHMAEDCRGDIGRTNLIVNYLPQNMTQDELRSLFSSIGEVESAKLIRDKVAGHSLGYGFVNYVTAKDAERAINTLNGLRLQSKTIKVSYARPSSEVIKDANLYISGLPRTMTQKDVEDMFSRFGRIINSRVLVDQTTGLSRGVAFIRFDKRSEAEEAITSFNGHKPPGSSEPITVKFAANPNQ
T2 sequence (Q15717 whole entry, the tested form may be a part): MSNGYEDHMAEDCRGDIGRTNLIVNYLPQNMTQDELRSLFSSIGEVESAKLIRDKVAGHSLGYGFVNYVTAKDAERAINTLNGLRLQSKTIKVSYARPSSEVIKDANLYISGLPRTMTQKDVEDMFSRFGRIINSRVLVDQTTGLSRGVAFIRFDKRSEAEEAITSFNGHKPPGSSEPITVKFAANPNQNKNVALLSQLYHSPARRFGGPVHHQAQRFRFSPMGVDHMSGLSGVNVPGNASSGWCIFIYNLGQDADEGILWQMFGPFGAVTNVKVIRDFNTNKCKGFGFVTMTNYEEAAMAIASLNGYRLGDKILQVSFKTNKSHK
T1 sequence (Q15717 whole entry, the tested form may be a part): as above

Substance | Kd (HuR12) [nM] | Kd [1] [nM] | further results
4a (AUUUAUUUAUUUA; chemistry not given here) |  |  | Kd (full length HuR; binding to full length HuR): 1.4 nM; Kd (in nM) (full length HuR; binding to full length HuR): not bound
4c (AUUUAUUUAUUUA; chemistry not given here) |  |  | Kd (in nM) (full length HuR; binding to full length HuR): not bound
4d (AUUUAUUUAUUUA; chemistry not given here) |  |  | Kd (in nM) (full length HuR; binding to full length HuR): not bound
AUUAUUAUUAUUAUUA (chemistry not given here) [(AUU)5A] | 1590 |  | Kd sfl-HuR in nM +/- St. dev. [1]: n.b.
AUUAUUUAUUAUUUAUUUAUUAUUUAUUUAUUUA (chemistry not given here) [TNF-α, synthetic RNA fragment of the TNF-α ARE, 5'-terminally labeled with 5'-carboxy-TMR] | 21.4 | 0.35 | 
AUUUAUUUAUUUAUUUA (chemistry not given here) [(AUUU)4A] | 126 | 2.09 | 
AUUUAUUUAUUUAUUUAUUUA (chemistry not given here) [(AUUU)5A] | 23.5 | 0.4 | 
AUUUUAAUUUAUGAGUUUUUGAUAGCUUUAUUUUUUAAGUAUUUAUAUAUUUAUAA (chemistry not given here) [IL-4, synthetic RNA fragment of the IL-4 ARE, 5'-TMR labeled] | 154 | 3.21 | 
HuR12: HuR variant encompassing the first two RRMs, aa1-189 or aa2-189 of SEQ ID NO:1 |  |  | concentration at which no aggregation and precipitation is seen [2]: > 100 µM
UAGAGUUCAUCGCAAUUGCAC (chemistry not given here) [irrelevant seq., reference compound] |  |  | Kd sfl-HuR in nM +/- St. dev. [1]: n.b.; Kd HuR12 in nM +/- St. dev. (HuR12): n.b.
UAUUAAUUUAAUUAUUUAAUAAUAUUUAUAUUAAA (chemistry not given here) [Cox-2 (2), synthetic RNA fragment of the Cox-2 ARE, 5'-TMR labeled] | 229 | 13.6 | 
UAUUUAUUAUUUAUGUAUUUAUUUAA (chemistry not given here) [IL-8, synthetic RNA fragment of the IL-8 ARE, 5'-TMR labeled] | 42.9 | 1.09 | 
UAUUUAUUUAAAUAUUUAAAUUUUAUAUUUAUU (chemistry not given here) [IL-2, synthetic RNA fragment of the IL-2 ARE, 5'-TMR labeled] | 498 | 9.5 | 
UAUUUAUUUAUUUAUUUGUUUGUUUGUUUUAUU (chemistry not given here) [IL-1β, synthetic RNA fragment of the IL-1β ARE, 5'-TMR labeled] | 18.4 | 0.12 | 
polyU [reference compound] |  |  | binding / recognition by HuR (in words) (full length HuR; full length HuR): bound by HuR with high affinity
sfl-HuR: full-length human HuR (SEQ ID NO:1 or 2) whose C-terminal amino acid is esterified by Na-2-MESNA as a thioester |  |  | concentration at which no aggregation and precipitation is seen [2]: > 0.5 µM
wild-type full length HuR: unmodified wild-type full length HuR protein |  |  | solubility in aqueous solvent (in words) ([2]; without micelle-forming detergents or glycerol, protein >0.5 μM): practically insoluble
